Data as given in PubChem BioAssay AID179 (DTP/NCI, 2004).
Calls of active or inactive are those of the source.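 How the source made its calls: active means compounds giving half or more protection of infected cells from virus-caused growth loss, again on retest; inactive means the rest.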 Where a SMILES comes first, the peptide text is derived from it. [ ]: non-standard residue; d: D form. Phe(4-Cl) = N[CH](Cc1ccc(Cl)cc1)C(=O)O; 3Pal = N[CH](Cc1cccnc1)C(=O)O

Test system: CEM cells HIV-1 protection, formazan growth assay
Experiment: NCI AIDS Antiviral Assay
Conditions: for IC50: measured here: growth of uninfected CEM cells
Method in brief: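 Screen of anti-HIV-1 activity in human CEM cells using a formazan-based growth measurement at five drug concentrations. Hits with 50% or greater protection were repeated, and confirmation required reproducible complete protection.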

| Structure (SMILES) | EC50 [µM] | IC50 [µM] | outcome |
| --- | --- | --- | --- |
| CCOP(=S)(OCC)Oc1ccc(Sc2ccc(OP(=S)(OCC)OCC)cc2)cc1 | > 200 | 30.9 | – |
| CCCCCCCCCCCCCCCCCC(=O)OC[C@H](COP(=O)(O)OCCNC(=O)CCC(=O)NCCC=C(c1cc(Cl)c(OC)c(C(=O)OC)c1)c1cc(Cl)c(OC)c(C(=O)OC)c1)OC(=O)CCCCCCCCCCCCCCCCC | > 50.1 | > 50.1 | – |
| Cn1c2c(sc1=O)CCC2 | > 200 | > 200 | – |
| COc1ccc(/C=C/C(=O)C(C)C)cc1 | > 200 | 33.9 | – |
| Cc1nc2c(nc1C)C(=O)c1ccccc1C2=O | > 200 | 4.57 | – |
| COc1cc(Br)c(CC2NCCc3cc(OC)c(OC)cc32)cc1OC (configuration not stated) | > 224 | > 224 | – |
| CC(C)=CCC/C(C)=C\C=N/O | > 155 | 8.13 | – |
| O=C(/C=C/c1ccc(O)c(O)c1)OC1CC(O)(C(=O)O)CC(O)C1O (configuration not stated) | > 200 | 91.2 | – |
| CC(=O)OC1(C#N)CC2OC1C1C2N1C(=O)c1ccccc1 (configuration not stated) | > 316 | > 316 | – |
| COC(=O)/C=C/c1c(=O)c(C(=O)OC)cn2cnc3nc[nH]c3c12 | > 50.1 | > 50.1 | – |
| CC1=C(C(=O)NCc2ccccc2)C(c2ccc(N(C)C)cc2)C(C(=O)NCc2ccccc2)=C(C)N1 | > 72.4 | > 72.4 | – |
| Cc1ccc(N=NC2=C3Sc4ccccc4N=C2N(c2ccc(Br)cc2)C(=S)N3c2ccc(Cl)cc2)cc1 | > 45.7 | > 45.7 | – |
| O=C1NC(=O)C(=CN2C(=O)/C(=C/c3ccc([N+](=O)[O-])cc3)SC2=S)C(=O)N1 | > 200 | 115 | – |
| CC1SC2=NC3=C(c4ccccc4C3=O)C(c3ccc(Br)cc3)N2C1=O (configuration not stated) | > 32.4 | > 32.4 | – |
| C/C(=N\NC(=O)c1ccncc1)c1ccc(F)cc1 | > 363 | > 363 | – |
| COC[C@@H](N=CC(C)(C)C)C(C)C | > 200 | > 200 | – |
| Cc1ccc2[nH]c3c(c2c1)[n+]([O-])c1ccccc1[n+]3[O-] | > 200 | 38.9 | – |
| COc1ccc(C2(OC)Oc3ccccc3C(=O)C2(O)OC)cc1OC (configuration not stated) | > 200 | 11.5 | – |
| O=S(=O)(O)c1ccc(N=Nc2ccc(N=Nc3c(O)c(S(=O)(=O)O)cc4cc(S(=O)(=O)O)ccc34)cc2)cc1 | – | – | inactive |
| COC1c2ccccc2C2C(Cl)(Cl)C23c2ccccc2C13 (configuration not stated) | > 12 | > 12 | – |
| CN(C)c1ccc(/C=c2\sc3nnc(-c4cccnc4)n3c2=O)cc1 | > 20.9 | > 20.9 | – |

| Structure (SMILES) | EC50 [µM] | IC50 [µM] | outcome |
| --- | --- | --- | --- |
| O=C1c2ccccc2C(=O)N1CCc1c[nH]c2ccccc12 | > 200 | > 200 | – |
| CNC(=O)CN1CC(=O)N(C)C(=O)C1 | > 1260 | > 1260 | – |
| CCCCCCCCCCCCC(Br)C(=O)OCC1OC(n2cc(C)c(=O)[nH]c2=O)CC1O (configuration not stated) | > 200 | – | – |
| O=C(CCc1ccc(O)c(O)c1)OCCc1ccccc1 | > 200 | 6.61 | – |
| O=c1c2ccccc2oc2ccccc12.[Cl][Hg][Cl] | > 11.2 | > 11.2 | – |
| COc1ccc(C(=O)CC2=Nc3nnc(CCCCCCCc4nnc5n4C(=O)C(CC(=O)c4ccc(OC)cc4)=N5)n3C2=O)cc1 | > 4.27 | > 4.27 | – |
| CCOC(=O)C(C(=O)OCC)S(C)(=O)=O | > 251 | > 251 | – |
| Cc1ccccc1OCC(COC(=O)Nc1ccccc1)OC(=O)Nc1ccccc1 (configuration not stated) | > 32.4 | > 32.4 | – |
| O=C(O)c1ccccc1S(=O)O | > 200 | > 200 | – |
| CCON1CC(C(=O)OC)=C(O)C1=O | > 200 | > 200 | – |
| Cc1nc(-c2cccnc2)sc1C(=O)/C=C/c1cccc([N+](=O)[O-])c1 | > 74.1 | > 74.1 | – |
| O=[N+]([O-])c1cccc2nc3ccccc3c(NCCCCCNc3c4ccccc4nc4cccc([N+](=O)[O-])c34)c12 | 0.0195 | 0.0832 | – |
| CCOC(=O)C1SC(=Nc2ccc(Cl)c(Cl)c2)N=C1C (configuration not stated) | > 11.5 | > 11.5 | – |
| COc1cc(-c2cc(=O)c3c(C)cc(O)cc3o2)cc(OC)c1OC | 112 | > 200 | – |
| O=[N+]([O-])c1ccc2nc(-c3ccccc3[N+](=O)[O-])[nH]c2c1 | > 126 | 24.5 | – |
| Cc1cn(CCCCOC(=O)NC(CCCNC(N)=O)C(=O)O)c(=O)[nH]c1=O (configuration not stated) | > 200 | > 200 | – |
| COC(=O)[C@@]12CSC[C@]1(C(=O)OC)N[C@@H](c1ccccc1O)C2 | > 200 | > 200 | – |
| O=C(C(c1ccccc1)c1ccccc1)N1CCN(c2ccccn2)CC1 | > 89.1 | 29.5 | – |
| CCCCCCCCCCCCCCCC(=O)OCC(C[As](=O)(O)O)OC(=O)CCCCCCCCCCCCCCC (configuration not stated) | > 38 | > 38 | – |
| Cc1ccc(C(=O)NC(C)C)cc1N=NN(C)C | > 145 | > 145 | – |
| O=C(CC1Sc2ccccc2NC1=O)Nc1ccc([N+](=O)[O-])cc1[N+](=O)[O-] (configuration not stated) | > 67.6 | > 67.6 | – |

| Structure (SMILES) | EC50 [µM] | IC50 [µM] | outcome |
| --- | --- | --- | --- |
| CN1CCc2cc(O)c3cc2C1Cc1ccc(cc1)Oc1cc(ccc1OC(=O)C(C)(C)C)CC1c2c(cc(OC(=O)C(C)(C)C)c(OC(=O)C(C)(C)C)c2O3)CCN1C (configuration not stated) | – | – | inactive |
| COC12OCCN(C)C1=CC(=O)C1=NNC(C)C12 (configuration not stated) | – | – | inactive |
| COC(=O)NC(Nc1ccc(C)cc1)(C(F)(F)F)C(F)(F)F | – | – | inactive |
| COc1ccc(/C=N/Nc2ccc(S(=O)(=O)O)cc2)cc1 | > 759 | 331 | – |
| COCOC1/C=C/CCCCC(=O)C(C)C#CC1 (configuration not stated) | > 200 | 7.24 | – |
| Cc1ccc2oc(=O)cc(CC(=O)O)c2c1 | > 1150 | > 1150 | – |
| CC(C)(C)[Si](C)(C)OCC1OC(n2ccc(=O)[nH]c2=O)C(O[Si](C)(C)C(C)(C)C)C1CCN(O)CC1OC(n2ccc(=O)[nH]c2=O)C(O[Si](C)(C)C(C)(C)C)C1O[Si](C)(C)C(C)(C)C (configuration not stated) | > 100 | > 100 | – |
| Nc1nc(Cl)cc(OCC2(O)CC(COC(=O)c3ccccc3)C2)n1 (configuration not stated) | > 200 | 60.3 | – |
| CC(=O)OCCNc1n[nH]c(=O)c2cnccc12 | > 1000 | > 1000 | – |
| NC(=O)C12C(=O)NC(=O)C1(C(=O)O)C21CCCC1 (configuration not stated) | > 200 | > 200 | – |
| ClC1=NSC(Cl)=NS1 | > 53.7 | > 53.7 | – |
| COc1ccccc1NC(=O)C(CC(C(=O)Nc1ccccc1OC)/C(C)=N/NC(=O)c1ccccc1O)/C(C)=N/NC(=O)c1ccccc1O (configuration not stated) | > 51.3 | > 51.3 | – |
| CCC1=NC(N/N=C/c2ccco2)=N/C1=C\c1ccccc1O | > 50.1 | – | – |
| C#CCC(O)c1ccccc1C(O)CC#C (configuration not stated) | – | – | inactive |
| CC/C(N)=N\NC(=O)OC(C)(C)C | > 200 | > 200 | – |
| COC1=NS(=O)(=O)C2CCCCCCC2O1 (configuration not stated) | > 1000 | > 1000 | – |
| COC(=O)Cc1cc(OC)c(OC)cc1Br | > 631 | 513 | – |
| CN(C)CC1CCCC1=O (configuration not stated) | > 200 | 28.2 | inactive |
| CCN(CC)c1ccc(C(=C2C=CC(=[N+](CC)CC)C=C2)c2ccccc2)cc1 | – | – | inactive |
| O=c1[nH]c(Nc2ccc(F)c(Cl)c2)nc2nc[nH]c12 | > 200 | > 200 | – |
| COc1ccc(C(=C2C=CC=C2)c2ccc(OC)cc2)cc1 | > 200 | 52.5 | – |

| Structure (SMILES) | EC50 [µM] | IC50 [µM] | outcome |
| --- | --- | --- | --- |
| O=C1Cc2ccccc2N1C1c2ccccc2C=Cc2ccccc21 | > 200 | 21.4 | – |
| Cc1nnc(NS(=O)(=O)c2ccc(N=Nc3cc4ccccc4c(C(=O)O)c3O)cc2)s1 | > 200 | 22.9 | – |
| COc1cc2c(oc(=O)c3c4occc4cc(OC)c23)c2cccc(OCc3ccccc3)c12 | > 1.15 | > 1.15 | – |
| NC(=O)c1ncn(C2OC(CO)C(O)C2O)c1NC=O (configuration not stated) | > 200 | > 200 | – |
| OC1(c2cccc3ccccc23)CCCc2cc3c(ccc4ccccc43)cc21 (configuration not stated) | > 200 | 155 | – |
| N#C/C(=C\c1ccc(O)c(O)c1)C(=O)NC1CCC(CC2CCC(NC(=O)/C(C#N)=C/c3ccc(O)c(O)c3)CC2)CC1 (configuration not stated) | > 200 | 1.07 | – |
| O=C(O)CSc1n[nH]c(-c2ccco2)n1 | > 224 | > 224 | – |
| CCOc1ccc(/C=C(\C#N)c2cccc(Cl)c2)cc1 | > 200 | 8.51 | – |
| CC(=O)NC(Cc1ccc(Cl)cc1)C(=O)NC(Cc1ccc(Cl)cc1)C(=O)NC(Cc1cccnc1)C(=O)NC(CO)C(=O)NC(Cc1ccc(O)cc1)C(=O)NC(CCCN=C(N)N)C(=O)NC(CC(C)C)C(=O)NC(CCCN=C(N)N)C(=O)N1CCCC1C(=O)NC(C)C(=O)O (configuration not stated) (Ac-[Phe(4-Cl)][Phe(4-Cl)][3Pal]SYRLRPA-OH; configuration not given here) | > 17 | > 17 | – |
| CC(O)c1ccc[n+](Cc2ccccc2)c1 (configuration not stated) | > 1000 | 776 | – |
| O=C(CCCN1CCC2(CC1)OC(=O)N(c1ccccc1)C2=O)c1ccccc1 | > 200 | > 200 | – |
| C/C(=N\NC(=S)N1CCN(c2ccccn2)CC1)c1nccs1 | > 145 | 0.646 | – |
| N#Cc1cccc(C2ON=C(c3ccc([N+](=O)[O-])cc3)N2C23CC4CC(CC(C4)C2)C3)c1 (configuration not stated) | > 200 | > 200 | – |
| C=CCNC(=S)Nc1ccc(Cl)cc1 | > 200 | 120 | – |
| COc1cccc(NC(=O)C(=O)C2C=CCS2(=O)=O)c1 (configuration not stated) | > 63.1 | > 63.1 | – |
| CC(=O)c1c2c(cc3c1CC1(C3)Cc3ccc4c(c3C1=O)CCC4)CCC2 (configuration not stated) | > 200 | 40.7 | – |
| CCOC(=O)NNC(=O)NCCNC(=O)NNC(=O)OCC | > 200 | > 200 | – |
| CC1=CC23C(COC(=O)C24CO4)C(C(=O)O)=CC3C1C (configuration not stated) (tested in a mixture with another compound) | > 200 | 47.9 | – |
| CC(C)(C)[Si](C)(C)OCC1OC(n2ccc(=O)[nH]c2=O)C(O[Si](C)(C)C(C)(C)C)C1CC#N (configuration not stated) | > 200 | 11.7 | inactive |
| O=S(Cc1cc2c(cc1-c1ccccc1)OCO2)c1ccccc1 (configuration not stated) | > 269 | 9.55 | – |
| CCOC(OC1=C(C#N)CCCC1)C(CC)[Se]c1ccccc1 (configuration not stated) | > 132 | 67.6 | – |
